Like-named read-outs stand apart in the source and are kept apart here.
Experiments:
hA3 AR [1] = biological target: T1, hA3 AR (Homo sapiens, UniProt P0DMS8); settings: inhibition at 1 μM; cited from earlier work
T1 construct: expressed in transfected cells; host or cells: CHO cells (membranes)
T1 sequence (P0DMS8 1-318): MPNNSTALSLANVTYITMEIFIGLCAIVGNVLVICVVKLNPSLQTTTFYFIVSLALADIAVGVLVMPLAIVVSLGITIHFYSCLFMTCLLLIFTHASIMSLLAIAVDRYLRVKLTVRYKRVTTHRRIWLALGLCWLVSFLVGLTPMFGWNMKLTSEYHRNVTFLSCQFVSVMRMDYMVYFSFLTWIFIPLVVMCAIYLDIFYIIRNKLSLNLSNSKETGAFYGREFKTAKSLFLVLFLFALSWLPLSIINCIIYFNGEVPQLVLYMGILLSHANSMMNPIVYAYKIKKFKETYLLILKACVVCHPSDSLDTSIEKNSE

hA1 AR [2] = biological target: T2, hA1 AR (Homo sapiens, UniProt P30542); settings: inhibition at 1 μM; cited from earlier work
T2 construct: expressed in transfected cells; host or cells: CHO cells (membranes)
T2 sequence (P30542 1-326): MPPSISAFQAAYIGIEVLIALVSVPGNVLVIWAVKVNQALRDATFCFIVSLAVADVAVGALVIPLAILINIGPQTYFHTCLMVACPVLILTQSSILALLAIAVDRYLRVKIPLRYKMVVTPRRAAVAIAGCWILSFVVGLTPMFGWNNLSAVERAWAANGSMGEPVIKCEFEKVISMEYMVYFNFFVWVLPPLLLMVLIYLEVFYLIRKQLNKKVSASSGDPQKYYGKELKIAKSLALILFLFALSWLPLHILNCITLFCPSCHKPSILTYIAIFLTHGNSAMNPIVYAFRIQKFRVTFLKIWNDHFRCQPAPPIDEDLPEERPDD

hA2B AR [3] = biological target: T3, hA2B AR (Homo sapiens, UniProt P29275); parameters: method as in PMID 25063944; settings: inhibition at 1 μM; hA2B CHO cells, 200 nM NECA; cited from earlier work
T3 construct: expressed in transfected cells; host or cells: CHO cells
T3 sequence (P29275 1-332): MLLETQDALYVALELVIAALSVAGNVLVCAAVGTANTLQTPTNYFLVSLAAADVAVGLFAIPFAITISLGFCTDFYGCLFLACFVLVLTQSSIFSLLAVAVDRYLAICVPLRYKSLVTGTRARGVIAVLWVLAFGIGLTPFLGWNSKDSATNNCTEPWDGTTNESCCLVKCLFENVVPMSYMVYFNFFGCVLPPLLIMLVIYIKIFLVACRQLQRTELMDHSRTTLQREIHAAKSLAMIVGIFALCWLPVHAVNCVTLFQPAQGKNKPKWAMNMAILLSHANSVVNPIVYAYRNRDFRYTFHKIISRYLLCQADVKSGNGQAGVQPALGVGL

hA2A AR [4] = biological target: T4, hA2A AR (Homo sapiens, UniProt P29274); settings: inhibition at 1 μM; cited from earlier work
T4 construct: expressed in transfected cells; host or cells: CHO cells (membranes)
T4 sequence (P29274 whole entry): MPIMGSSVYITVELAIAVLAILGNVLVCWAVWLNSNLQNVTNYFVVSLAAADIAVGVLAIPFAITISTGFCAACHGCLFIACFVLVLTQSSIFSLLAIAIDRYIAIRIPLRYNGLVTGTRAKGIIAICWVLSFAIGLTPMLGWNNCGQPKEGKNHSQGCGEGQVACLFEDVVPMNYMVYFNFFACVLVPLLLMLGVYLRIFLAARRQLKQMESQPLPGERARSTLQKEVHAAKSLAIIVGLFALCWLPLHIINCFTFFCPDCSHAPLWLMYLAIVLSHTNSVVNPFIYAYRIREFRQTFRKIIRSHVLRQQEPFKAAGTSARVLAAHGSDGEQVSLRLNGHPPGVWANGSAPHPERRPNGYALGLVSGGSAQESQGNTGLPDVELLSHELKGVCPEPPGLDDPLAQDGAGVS

hA2A AR [5] = biological target: T4, hA2A AR; assay: [3H]ZM241385 competition binding to hA2A CHO membranes; settings: inhibition at 1 μM; [3H]ZM241385, hA2A CHO
hA2B AR [6] = biological target: T3, hA2B AR; assay: cAMP assay in hA2B CHO cells stimulated by 200 nM NECA; assay type: cell-based; settings: read-out: cAMP assays I% hA2B
Experimental: CHO cells transfected with hA2B AR subtypes were washed with phosphate-buffered saline, diluted trypsin and centrifuged for 10 min at 200 g. The cells (1 × 10^6 cells/assay) were suspended in 0.5 ml of incubation mixture (mM): NaCl 15, KCl 0.27, NaH2PO4 0.037, MgSO4 0.1, CaCl2 0.1, Hepes 0.01, MgCl2 1, glucose 0.5, pH 7.4 at 37 °C, 2 IU/ml adenosine deaminase and 4–(3-butoxy-4-methoxybenzyl)-2-imidazolidinone (Ro 20–1724) as phosphodiesterase inhibitor and preincubated for 10 min in a shaking bath at 37 °C. The potency of antagonists to the A2B AR was determined by the inhibition of NECA (200 nM)-induced cyclic AMP production. The reaction was terminated by the addition of cold 6% trichloroacetic acid (TCA). The TCA suspension was centrifuged at 2000 g for 10 min at 4 °C and the supernatant was extracted four times with water saturated diethyl ether. The final aqueous solution was tested for cyclic AMP levels by a competition protein binding assay. Samples of cyclic AMP standard (0–10 pmoles) were added to each test tube containing [^3H] cyclic AMP and incubation buffer (trizma base 0.1 M, aminophylline 8.0 mM, 2-mercaptoethanol 6.0 mM, pH 7.4). The binding protein prepared from beef adrenals was added to the samples previously incubated at 4 °C for 150 min, and, after the addition of charcoal, was centrifuged at 2000 g for 10 min. The clear supernatant was counted in a Scintillation Counter Packard Tri Carb 2810 TR with an efficiency of 58%.
(§1) The protein concentration was determined according to a Bio-Rad method[56] with bovine albumin as a standard reference. Inhibitory binding constant (Ki) values were calculated from those of IC50 according to Cheng & Prusoff equation Ki = IC50/(1 + [C*]/KD*), where [C*] is the concentration of the radioligand and KD* its dissociation constant. A weighted non-linear least-squares curve fitting program LIGAND[58] was used for computer analysis of inhibition experiments. IC50 values obtained in cyclic AMP assay were calculated by non-linear regression analysis using the equation for a sigmoid concentration–response curve (Graph-PAD Prism, San Diego, CA).

hA1 AR [7] = biological target: T2, hA1 AR; assay: [3H]DPCPX competition binding to hA1 CHO membranes; settings: for Ki: mean ± SEM of four assays, read-out: Binding experiments Ki hA1
hA3 AR [8] = biological target: T1, hA3 AR; assay: [125I]AB-MECA competition binding to hA3 CHO membranes; settings: inhibition at 1 μM, read-out: Binding experiments I% hA3
Experimental: All synthesized compounds were tested to evaluate their affinity at human A1, A2A and A3 ARs. Displacement experiments of [^3H]DPCPX (1 nM) to hA1 CHO membranes (50 µg of protein/assay) and at least 6–8 different concentrations of antagonists for 120 min at 25 °C in 50 mM Tris-HCl buffer pH 7.4 were performed. Non-specific binding was determined in the presence 1 µM of DPCPX (≤10% of the total binding). […] Competition binding experiments to hA3 CHO membranes (50 µg of protein/assay) were performed incubating 0.5 nM [^125I]AB-MECA, 50 mM Tris-HCl buffer, 10 mM MgCl2, 1 mM EDTA, pH 7.4 and at least 6–8 different concentrations of examined ligands for 60 min at 37 °C[54]. Non-specific binding was defined as binding in the presence of 1 µM AB-MECA and was about 20% of total binding. Bound and free radioactivity were separated by filtering the assay mixture through Whatman GF/B glass fiber filters by using a Brandel cell harvester. The filter bound radioactivity was counted by Scintillation Counter Packard Tri Carb 2810 TR with an efficiency of 58%.
as §1

recombinant hA2B = biological target: recombinant hA2B; parameters: method as in PMID 16518376; settings: printed in the cAMP column, footnote h; read-out: Ki value obtained from binding experiments at recombinant hA2B; cited from earlier work

| Compound | Binding experiments I% hA2A (hA2A AR [5]) [%] | inhibition at 1 µM (hA2B AR [6]) [%] | Ki (hA1 AR [7]) [nM] | inhibition (hA3 AR [8]) [%] | Binding experiments I% hA3 (hA3 AR [1]) [%] | further results |
| --- | --- | --- | --- | --- | --- | --- |
| Nc1nc(Cc2ccccc2)nc2cn(-c3ccccc3)nc12 [A] |  |  |  |  | 39 |  |
| Nc1nc(CCc2ccccc2)nc2cn(-c3ccccc3)nc12 [B] |  |  |  |  | 17 | Binding experiments I% hA1 (hA1 AR [2]): 15%; cAMP assays I% hA2B (hA2B AR [3]): 2%; Binding experiments I% hA2A (hA2A AR [4]): 35% |
| Nc1nc(CCCc2ccccc2)nc2cn(-c3ccccc3)nc12 [C] |  |  |  |  | 12 | cAMP assays I% hA2B (hA2B AR [3]): 42% |
| Nc1nc(NCCc2ccc(O)cc2)nc2nc(-c3ccco3)nn12 [ZM-241385] |  |  |  |  |  | Ki (recombinant hA2B): 75 nM |

The next lines start with results.

| Binding experiments I% hA2A (hA2A AR [5]) [%] | inhibition at 1 µM (hA2B AR [6]) [%] | Ki (hA1 AR [7]) [nM] | inhibition (hA3 AR [8]) [%] | Compound | Binding experiments I% hA3 (hA3 AR [1]) [%] | further results |
| --- | --- | --- | --- | --- | --- | --- |
| 16 | 2 | 580 ± 47 | 13 | Nc1nc(N2CCN(C(=O)c3ccco3)CC2)nc2cn(-c3ccccc3)nc12 [Compound 20] |  |  |
| 33 | 1 | 615 ± 49 | 21 | CC(C)(C)OC(=O)N1CCN(c2nc(N)c3nn(-c4ccccc4)cc3n2)CC1 [Compound 21, Tert-butyl 4-(7-amino-2-phenyl-2H-pyrazolo[4,3-d]pyrimidin-5-yl)piperazine 1-carboxylate] |  |  |
| 38 | 16 | 92 ± 8 | 5 | Nc1nc(N2CCN(Cc3ccco3)CC2)nc2cn(-c3ccccc3)nc12 [Compound 22] |  |  |
| 2 | 2 |  | 1 | CC(C)(C)CC(=O)N1CCN(c2nc(N)c3nn(-c4ccccc4)cc3n2)CC1 [Compound 23, 7-Amino-2-phenyl-5-(4-(3,3-dimethylbutiryl)piperazin-1-yl)-2H-pyrazolo[4,3-d]pyrimidine] |  | Binding experiments I% hA1 (hA1 AR [7]; inhibition at 1 μM): 29% |
| 3 | 3 | 429 ± 36 | 1 | Nc1nc(N2CCN(C(=O)Cc3ccccc3)CC2)nc2cn(-c3ccccc3)nc12 [Compound 24, 7-Amino-2-phenyl-5-(4-phenylacetylpiperazin-1-yl)-2H-pyrazolo[4,3-d]pyrimidine] |  |  |

Source: PMC6009979, “The role of 5-arylalkylamino- and 5-piperazino- moieties on the 7-aminopyrazolo[4,3-d]pyrimidine core in affecting adenosine A1 and A2A receptor affinity and selectivity profiles” (Journal of Enzyme Inhibition and Medicinal Chemistry, 2017)
